The values below come from US4263316A, “N-(1-Methyl-2-pyrrolidinylmethyl)-2,3-dimethoxy-5-methylsulfamoyl benzamide and its derivatives, methods of preparing them and their application to the treatment of troubles of the lower part of the body” (Societe d'Etudes Scientifiques et Industrielles de l'Ile de …, priority 1978, dated 1981).

The nature of data set [1]: Acute toxicity (lethal dose) in Swiss mice, parenteral and oral. To be noted: mouse, in vivo. The protocol: The acute toxicity of the compounds of the invention was determined on Swiss mice parenterally, (intravenously, intraperitoneally, subcutaneously) and orally.
Measurement of the lethal doses of N-(1-methyl-2-pyrrolidinylmethyl)-2,3-dimethoxy-5-methylsulphamoyl benzamide (compound 1) and its levorotatory isomer (compound 2) gave the following results: […]

The test system of a further data set is rabbit. The data set is described as follows: Cystomanometry in the anesthetized rabbit. The format is in vivo. The protocol:
(§1) A pharmacological study of the compound of the invention which consisted of studying its action on the results of cystomanometry in the rabbit and rat was performed under the following conditions: the animals were anesthesized with pentobarbitol and were given artificial respiration. The left outer jugular vein was catheterized to permit the I.V. injection of the studied product. The bladder was then exteriorized and the two ureters were connected and provided with two catheters, one of which was used to measure the intravesical pressure and the other for the vesical filling.
(§2) The vesical was filled by perfusion of 0.9% salt water at a constant flow rate of 40 ml/min for the rabbit and 5 ml/min for the rat.
(§3) The intravesical pressure before perfusion and the perfused water volume were measured.
(§4) The following parameters were studied: the intravesical pressure before perfusion P1 the intravesical pressure at the time of starting urination P2 […]
(§5) the volume of salt water perfused the quantity discharged during urination the residual quantity only in the bladder.
The cystomanometry study was performed under the following conditions: a first perfusion was carried out after stabilising the preparation for 5 minutes a second perfusion was carried out 15 minutes after the first a third perfusion was carried out 5 minutes after the second.
The study was performed by chronic and acute administration to the rabbit and acute administration to the rat.
The study of the rabbit was performed in the following manner:
10 male rabbits having an average weight of 2500±100 g were used as the control batch for the chronic administration study, 10 male rabbits with an average weight of 2500±100 g were treated every morning for 8 days with N-(1-methyl-2-pyrrolidinylmethyl)-2,3-dimethoxy-5-methylsulphamoyl benzamide intramuscularly injected at a dosage of 10 mg/kg/day. The final injection was carried out 30 minutes before the experiment […]
for the acute administration study 2 batches of 10 male rabbits with an average weight of 2500±100 g were treated with N-(1-methyl-2-pyrrolidinylmethyl)-2,3-dimethoxy-5-methylsulphamoyl benzamide intravenously administered at doses of 5 and 50 mg/kg.
For the controls and for all the treated batches the first perfusion is used as a standard for the following perfusions (each animal serving as its own control).
In the case of the acute administration of N-(1-methyl-2-pyrrolidinylmethyl)-2,3-dimethoxy-5-methylsulphamoyl benzamide to both the rabbit and the rat the product was injected at the end of the first perfusion.
There was a delay of 15 minutes before the two other perfusions (this was also respected for the controls in order to adhere to the same experimental conditions).

In the next data set the test system is rat. The data set is described as follows: Cystomanometry in the anesthetized rat. The format is in vivo. The protocol: as §1, §2, §3, §4, §5
The cystomanometry study was performed under the following conditions: a first perfusion was carried out after stabilising the preparation for 5 minutes a second perfusion was carried out 15 minutes after the first a third perfusion was carried out 5 minutes after the second. […]

The subject of the next data set is man. The data set can be described thus: Gaseous cystomanometric study in man (cases of serious neurological bladder). The format is in vivo. The protocol:
A person suffering from multiple sclerosis suffered from incontinence, pollakisuria and the very frequent need to urinate. The intramuscular injection of two 100 mg ampules of the compound of the invention delayed the need to urinate for a volume of 150 cm^3, compared with 80 cm^3 before treatment.
A person having psychogenic urinary disorders with incontinence and pollakisuria received two 100 mg ampules of the compound according to the invention by the intramuscular route. They only needed to urinate for a volume of 400 cm^3, compared with 200 cm^3 before treatment. They were able to voluntarily prevent urination for 2 minutes compared with 15 seconds before treatment.

Data set [2] relates to cystalgias with clear urine in women. The data set is described as follows: Double blind study in females versus placebo (cystalgias with clear urine). It is filed as in vivo. The protocol: cystalgias with clear urine in women.
(§6) 2. To check these impressions, two studies were carried out according to the double blind procedure:
Due to the absence of a reference product the activity of the present product was compared with a placebo.

The subject of data set [3] is functional disorders of the lower urinary apparatus of men. The data set can be described thus: Double blind study in males versus lipidosterolic complex extracted from pygeum africanum (prostatism). The format is in vivo. The procedure:
functional disorders of the lower urinary apparatus of men and particularly in the case of prostatism
as §6
The study was carried out in comparison with the only possible reference product: lipidosterolic complex extracted from pygeum africanum.

The nature of data set [4]: Clinical tolerance and ease of oral treatment in both indications. The format is in vivo, men and women. The text has this:
For both the above indications, the ease of oral treatment was appreciated and the tolerance was excellent.

The test system of a further data set is pelvic spasms. The data set is described as follows: Treatment of pelvic spasms on probe after urological gynecological surgery. It is filed as in vivo. The following applies: intramuscular or intravenous.
Setting [5] is: intravenous, read-out: LD50 I.V.
The mark [6] stands for this setting: ip, intraperitoneal, read-out: LD50 I.P.
Where [7] appears, read: sc, subcutaneous, read-out: LD50 S.C.

Where two headings read alike, the source gives them in different places.

For `CNS(=O)(=O)c1cc(OC)c(OC)c(C(=O)NCC2CCCN2C)c1` (single isomer, unassigned) [Compound 2, Levorotatory N-(1-methyl-2-pyrrolidinylmethyl)-2,3-dimethoxy-5-methylsulphamoyl benzamide], the LD50 was in the range of 90 to 94.6 mg/kg in data set [1] (setting [5]); 310 to 336 mg/kg in data set [1] (setting [6]); 1080 to 1150 mg/kg in data set [1] (oral, read-out: LD50 P.O.); 741 to 780 mg/kg in data set [1] (setting [7]).

`CNS(=O)(=O)c1cc(OC)c(OC)c(C(=O)NCC2CCCN2C)c1` (stereo not drawn) [Compound 1, N-(1-methyl-2-pyrrolidinylmethyl)-2,3-dimethoxy-5-methylsulphamoyl benzamide]: the 50% lethal dose (LD50) in data set [1] (setting [5]) was in the range of 130 to 135 mg/kg; in data set [1] (setting [6]), 315 to 323 mg/kg; in data set [1] (oral, read-out: LD50 P.O.), 992 to 1050 mg/kg; in data set [1] (setting [7]), 936 to 960 mg/kg. Also, the urinary threshold entry with rabbit (anesthetized rabbit) was “lowers the urinary threshold”. In addition, in the data set on rabbit (rabbit, acute I.V. 5 and 50 mg/kg), the “significance of differences compared with the controls” value is “highly significant”. In addition, in the data set with rabbit (rabbit, acute I.V. 5 and 50 mg/kg, second and third perfusions, compared with chronic administration), the “variations of the same parameters (ΔP, perfusion volume)” value is “Variations in the same direction of the same parameters and in the same proportions”. In the data set with rabbit (rabbit, intramuscular, 10 mg/kg/day for 8 days), the “decrease of the perfusion volume compared with the controls” value was “about half”. Further, in the data set on rabbit (rabbit, intramuscular, 10 mg/kg/day for 8 days, as from the first perfusion), the “reduction of ΔP (P2 - P1) compared with control batch” value is on record as “about a third”. Besides, the “difference of ΔP compared with the controls at the third perfusion” value in the data set on rabbit (rabbit, intramuscular, 10 mg/kg/day for 8 days, third perfusion) was “reduced at the third perfusion”. In the data set on rat (acute I.V. 50 and 100 mg/kg), the “same phenomena as in the rabbit (ΔP, perfusion volume)” value is given as “not observed”. In the data set with rat (second and third perfusions, particularly at I.V. dosage of 50 mg/kg), the urinary volume result was “significant increase”. Besides, the vesical tolerance result in the data set with man (man, two cases of serious neurological bladder) was “increase in the vesical tolerance”. In addition, the “volume at which need to urinate occurs” value in the data set with man (person, multiple sclerosis, intramuscular, two 100 mg ampules, 80 cm^3 before treatment) came out at 150 cm^3; with man (person, psychogenic urinary disorders, intramuscular, two 100 mg ampules, 200 cm^3 before treatment), 400 cm^3. For the same compound, the “time of voluntary prevention of urination” value in the data set with man (person, psychogenic urinary disorders, intramuscular, two 100 mg ampules, 15 seconds before treatment) is 2 min. For the same compound, the superiority over placebo result in data set [2] is recorded as “very significant”. In data set [3], the “superiority over lipidosterolic complex extracted from pygeum africanum” value is on record as “statistically significant”. For the same compound, the tolerance entry in data set [4] was “excellent”. Moreover, the “activity in the treatment of pelvic spasms” value in the data set with pelvic spasms is listed as “remarkably active”.
